Results published in patent US20120196895A1, “NOVEL FORMS OF EPERISONE” (Bionevia Pharmaceuticals, Inc., priority 2009, published 2012).
Where a name gives a salt, the structure may show the parent alone.

Assay: Solubility determinations of crystalline forms of racemic eperisone in water
Type: physicochemical
Details: for Solubility: HPLC-grade water, slurry on rotating wheel 46.5 hours at ambient temperature (about 19° C.), filtrate dried and weighed; for Relative solubility among the forms: ranking of the Table 10 solubilities in water
Description: The solubilities of the crystalline forms of racemic eperisone were determined as follows. Each experiment was conducted in a one-dram vial by adding weighed amounts of solid salt in portions to a weighed amount of HPLC-grade water until a slurry was obtained. In the case of the mesylate salt, a slurry was not obtained; solid addition was stopped while a solution was still present. Each vial was capped and placed on a rotating wheel for 46.5 hours at ambient temperature. Each vial was removed from the wheel. The ambient temperature at the time of removal was about 19° C. The contents of each vial were vacuum filtered through Whatman Grade 1 filter paper. Solids adhering to the inside of the vial were not recovered. Each filtrate was weighed, dried under diaphragm pump pressure over phosphorus pentoxide, and the resulting solid residue was weighed. Each filter cake was allowed to dry in the air overnight and was weighed.

| SMILES | Solubility | Relative solubility among the forms (listed as racemic eperisone mesylate) | Relative solubility among the forms (listed as racemic eperisone fumarate) |
| --- | --- | --- | --- |
| CCc1ccc(C(=O)C(C)CN2CCCCC2)cc1 (racemic) [Hydrochloride, (2RS)-1-(4-ethylphenyl)-2-methyl-3-piperidin-1-yl-propan-1-one, reference compound] | 210.7 mg/mL | – | – |
| CCc1ccc(C(=O)C(C)CN2CCCCC2)cc1 (racemic) [Maleate, (2RS)-1-(4-ethylphenyl)-2-methyl-3-piperidin-1-yl-propan-1-one] | 20.7 mg/mL | – | – |
| CCc1ccc(C(=O)C(C)CN2CCCCC2)cc1 (racemic) [Mesylate, (2RS)-1-(4-ethylphenyl)-2-methyl-3-piperidin-1-yl-propan-1-one] | >392.2 mg/mL | most soluble | – |
| CCc1ccc(C(=O)C(C)CN2CCCCC2)cc1 (racemic) [Fumarate, (2RS)-1-(4-ethylphenyl)-2-methyl-3-piperidin-1-yl-propan-1-one] | 16.8 mg/mL | – | least soluble |
| CCc1ccc(C(=O)C(C)CN2CCCCC2)cc1 (racemic) [Succinate, (2RS)-1-(4-ethylphenyl)-2-methyl-3-piperidin-1-yl-propan-1-one] | 114.7 mg/mL | – | – |
